This note sets out measurements from US20250388574A1, “HETEROCYCLIC COMPOUNDS AS TRIGGERING RECEPTOR EXPRESSED ON MYELOID CELLS 2 AGONISTS AND METHODS OF USE” (AMGEN INC., priority 2020, published 2025).

In the assay the target is hTREM2 (Homo sapiens, UniProt Q9NZC2). Put plainly: Phospho-Syk AlphaScreen/AlphaLISA assay in TREM2 and DAP12 overexpressing HEK293 cells (Example A1). It counts as cell-based. The arrangement: expressed in transfected cells. The settings on record: HEK293 cells; for EC50: read-out: hTREM2 EC50. How it is done: Pharmacological measurements of TREM2 signaling through DAP12 were made with TREM2 and DAP12 overexpressing HEK293 cells stable cell lines that had been single-cell cloned (“TREM2/DAP12-HEK”). The readout of the TREM2 signaling utilized Perkin Elmer AlphaScreen/AlphaLISA technology monitoring the phosphorylation levels of the Syk kinase. TREM2/DAP12-HEK cell lines were cultured in DMEM-F12 (Corning 10-092-CM) supplemented with 1× Penicillin/Streptomycin (Corning 30-002-CI), 1× GlutaMAX (Gibco 35050-061), and 10% Fetal Bovine Serum (Life Technologies 10099) referred to as “HEK Culture Medium”. Suspensions of TREM2/DAP12-HEK cells were prepared in HEK Culture Medium and dispensed into 384-well poly-D-lysine coated microplates (Corning 354661) at a density of 20,000 cells/well using a Multidrop Combi peristaltic microplate dispenser (Thermo), 25 uL volume of cell suspension/well. Plates containing cells were then incubated for 20 hours in a humidified cell culture incubator at 37° C. with 5% CO2 (Thermo). […] Assay Buffer contained diluted test articles (in 1% final DMSO concentration for compounds) or 100 nM anti-human/mouse TREM2 antibody (R&D Systems MAB17291) as a positive control, 100 nM or rat IgG2B isotype Ab as a negative control (R&D Systems MAB0061). Incubated the plates with test articles and controls for 45 minutes at room temperature and then aspirated/removed the medium from each well of the plates. Used a Multidrop Combi peristaltic liquid handler (Thermo) to dispense 15 uL/well of “Cell Lysis Immunoassay Buffer”. The Cell Lysis Immunoassay Buffer contained M-PER Mammalian Protein Extraction Reagent (Pierce/ThermoFisher 78505), 1× Halt Phosphatase Inhibitor Cocktail (ThermoFisher #78427), 0.1875 nM anti-phospho-Syk ([…]/526) ([…]) rabbit mAb (Cell Signaling Technologies catalog #2710), and 1.5 nM biotinylated Mouse anti-human Syk (4D10) antibody (BD Biosciences, catalog #624008). Incubated plates for 1 hour at room temperature after the addition of the Cell Lysis Immunoassay Buffer. Used the Multidrop Combi liquid handler to dispense 15 μL of AlphaScreen Acceptor Bead Solution containing 7.5 μg/mL anti-rabbit IgG (Fc specific) AlphaLISA Acceptor Beads (Perkin Elmer A[…]) in 1× Immunoassay buffer (Perkin Elmer A[…]) to each well of the microplates. Incubated plates for 2 hours at room temperature. Following the incubation with the AlphaLISA Acceptor Bead Solution, used a Multidrop Combi liquid handler (Thermo) to dispense 15 μL of AlphaScreen Donor Bead Solution containing 30 μg/mL of AlphaScreen Streptavidin Donor beads (Perkin Elmer 6760002B) in 1× Immunoassay buffer (Perkin Elmer A[…]) to each well of the microplates. Incubated microplates for 2 hours protected from light sources as the AlphaScreen reagents are light sensitive. Once the final incubation was completed, acquired AlphaScreen signal from the donor and acceptor beads using an Envision high throughput multi-modal microplate reader (Perkin Elmer) calibrated to the plate type with the AlphaScreen mirror and filter-set in 384-well mode, 680 nanometer excitation wavelength. The total measurement time per well was 550 milliseconds with a 180 millisecond excitation time. After reading the AlphaScreen signal for each well of the microplates, on a plate-by-plate basis, each raw test article well value (x) was normalized to a Percent of Control (“POC”) value using the following formula: […] Each plate contained 12 of each type of control wells that were used to generate the mean values. For concentration response curve analysis with test articles tested at various concentrations, the % of activation values were analyzed with 4 Parameter Logistic or Sigmoidal Dose-Response Models using GeneData Screener (GeneData, AG) or GraphPad Prism 7 (Graphpad Software, Inc.). […] This assay may be used to test any of the compounds described herein to assess and characterize a compound's ability to act as an agonist of TREM2.
hTREM2, sequence (Q9NZC2 19-230): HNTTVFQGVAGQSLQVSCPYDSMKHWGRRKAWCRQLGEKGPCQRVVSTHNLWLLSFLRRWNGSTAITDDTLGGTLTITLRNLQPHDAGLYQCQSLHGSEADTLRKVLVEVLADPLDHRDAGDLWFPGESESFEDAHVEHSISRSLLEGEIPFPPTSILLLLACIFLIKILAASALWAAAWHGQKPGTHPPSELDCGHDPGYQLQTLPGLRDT
hTREM2, sequence (O43914 22-113 partner): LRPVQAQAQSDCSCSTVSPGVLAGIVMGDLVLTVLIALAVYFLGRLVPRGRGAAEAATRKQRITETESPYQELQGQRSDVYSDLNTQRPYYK
(Alpha assays give light when donor and acceptor beads are brought close together.)

In the case of `Cc1nc2cc(N3CCO[C@@H](c4cnn(C)c4)C3)nc(-c3ccc(C(F)(F)F)cc3F)c2c(=O)n1C` [Example 13, 5-(2-fluoro-4-(trifluoromethyl)phenyl)-2,3-dimethyl-7-((2S)-2-(1-methyl-1H-pyrazol-4-yl)-4-morpholinyl)pyrido[4,3-d]pyrimidin-4(3H)-one], the Emax result is on record as “++++ (Emax>300)” and the EC50 lay within 50 to 500 nM.

For `Cc1nc2cc(N3CCO[C@@H](c4cnn(C)c4)C3)cc(-c3ccc(Cl)cc3F)c2c(=O)n1C` [Example 3, 5-(4-chloro-2-fluorophenyl)-2,3-dimethyl-7-((2S)-2-(1-methyl-1H-pyrazol-4-yl)-4-morpholinyl)-4(3H)-quinazolinone], the Emax entry is “+++ (Emax>200 and ≤300)”; the EC50 is below 50 nM.

In the case of `Cc1nc2cc(N3CCO[C@H](c4ccnc(OCC(F)(F)F)c4)C3)nc(-c3ccc(Cl)cc3F)c2c(=O)n1C` (single isomer, unassigned) [Example 95], the Emax entry was “++++ (Emax>300)” and the EC50 lay within 50 to 500 nM.

For the compound `CCCn1c(C)nc2cc(N3CCO[C@H](c4cnn(C)c4)C3)nc(-c3ncc(Cl)cc3F)c2c1=O` [Example 215, (R)-5-(5-chloro-3-fluoropyridin-2-yl)-2-methyl-7-(2-(1-methyl-1H-pyrazol-4-yl)morpholino)-3-propylpyrido[4,3-d]pyrimidin-4(3H)-one], the Emax entry is reported as “++++ (Emax>300)” and the EC50 fell in the range of 3000 to 100000 nM.

`COc1cc([C@@H]2C[C@@H](c3cc4nc(C)n(C)c(=O)c4c(-c4ccc(Cl)cc4F)n3)CCO2)ccn1` [Example 268, 5-(4-chloro-2-fluorophenyl)-7-((2S,4S)-2-(2-methoxypyridin-4-yl)tetrahydro-2H-pyran-4-yl)-2,3-dimethylpyrido[4,3-d]pyrimidin-4(3H)-one]: the Emax entry is listed as “++++ (Emax>300)” and the EC50 is 50 to 500 nM.

Consider `Cc1nc2cc(N3CCO[C@@H](c4cnn(C(F)(F)F)c4)C3)nc(-c3ccc(Cl)cc3F)c2c(=O)n1C` [Example 141, 5-(4-chloro-2-fluorophenyl)-2,3-dimethyl-7-((2S)-2-(1-(trifluoromethyl)-1H-pyrazol-4-yl)-4-morpholinyl)pyrido[4,3-d]pyrimidin-4(3H)-one], for which the Emax result is listed as “++++ (Emax>300)” and the EC50 fell in the range of 50 to 500 nM.

As for `Cc1nc2cc(N3CCCC(N(C)C)C3)nc(-c3ccc(Cl)cc3F)c2c(=O)n1C` (stereo not drawn) [Example 109, 5-(4-chloro-2-fluoro-phenyl)-7-(3-(dimethylamino)-1-piperidinyl)-2,3-dimethylpyrido[4,3-d]pyrimidin-4(3H)-one], the Emax result is given as “++++ (Emax>300)” and the EC50 lay within 500 to 3000 nM.

Consider `Cc1nc2cc(N3CCO[C@@H](c4ccncc4)C3)nc(-c3ccc(Cl)cc3F)c2c(=O)n1C` (single isomer, unassigned) [Example 49], for which the Emax result is recorded as “++++ (Emax>300)” and the EC50 was below 50 nM.

Consider `CCn1c(C)nc2cc(N3CCO[C@@H](c4noc(C)n4)C3)nc(-c3ccc(Cl)cc3F)c2c1=O` [Example 148, 5-(4-chloro-2-fluorophenyl)-3-ethyl-2-methyl-7-((2R)-2-(5-methyl-1,2,4-oxadiazol-3-yl)-4-morpholinyl)pyrido[4,3-d]pyrimidin-4(3H)-one], for which the Emax entry is “++++ (Emax>300)” and the EC50 fell in the range of 3000 to 100000 nM.

As for `Cc1noc([C@@H]2CCCN(c3cc4nc(C)n(C)c(=O)c4c(-c4ccc(Cl)cc4F)n3)C2)n1` (single isomer, unassigned) [Example 111], the Emax result is recorded as “++++ (Emax>300)” and the half-maximal effective concentration (EC50) fell in the range of 50 to 500 nM.

For `CCn1c(C)nc2cc(N3CCO[C@@H](c4cnn(C5CC5)c4)C3)nc(-c3ccc(F)cc3F)c2c1=O` [Example 151, 7-((2S)-2-(1-cyclopropyl-1H-pyrazol-4-yl)-4-morpholinyl)-5-(2,4-difluorophenyl)-3-ethyl-2-methylpyrido[4,3-d]pyrimidin-4(3H)-one], the Emax entry is “+++ (Emax>200 and ≤300)”; the EC50 was below 50 nM.

With `CCCn1c(C)nc2cc(N3CCO[C@H](CF)C3)nc(-c3ccc(Cl)cc3F)c2c1=O` [Example 193, (S)-5-(4-chloro-2-fluorophenyl)-7-(2-(fluoromethyl)morpholino)-2-methyl-3-propylpyrido[4,3-d]pyrimidin-4(3H)-one], the Emax result was “+++ (Emax>200 and ≤300)”; the EC50 is 500 to 3000 nM.

Take `Cc1nc2cc([C@@H]3CCO[C@H](c4cccnc4)C3)nc(-c3ccc(Cl)cc3F)c2c(=O)n1C` (single isomer, unassigned) [Example 178]: the Emax result is recorded as “++++ (Emax>300)” and the EC50 was 500 to 3000 nM.

For `Cc1nc2cc(N3CCc4cnn(C)c4C3)nc(-c3ccc(Cl)cc3F)c2c(=O)n1C` [Example 104, 5-(4-chloro-2-fluorophenyl)-2,3-dimethyl-7-(1-methyl-1,4,5,7-tetrahydro-6H-pyrazolo[3,4-c]pyridin-6-yl)pyrido[4,3-d]pyrimidin-4(3H)-one], the Emax entry is listed as “++++ (Emax>300)” and the EC50 lay in the range of 50 to 500 nM.

Turning to `Cc1nc2cc(N3CCc4ccncc4C3)nc(-c3ccc(Cl)cc3F)c2c(=O)n1C` [Example 102, 5-(4-chloro-2-fluorophenyl)-7-(3,4-dihydro-2,7-naphthyridin-2(1H)-yl)-2,3-dimethylpyrido[4,3-d]pyrimidin-4(3H)-one], the Emax result is “+++ (Emax>200 and ≤300)”; the EC50 lay within 50 to 500 nM.

With `Cc1nc([C@@H]2CN(c3cc4nc(C)n(C)c(=O)c4c(-c4ccc(Cl)cc4F)n3)CCO2)no1` (single isomer, unassigned) [Example 57], the Emax entry was “+++ (Emax>200 and ≤300)”; the EC50 fell in the range of 500 to 3000 nM.

As for `CCCn1c(C)nc2cc(N3CCO[C@H](C(F)F)C3)nc(-c3ccc(Cl)cc3F)c2c1=O` [Example 183, (S)-5-(4-chloro-2-fluorophenyl)-7-(2-(difluoromethyl)morpholino)-2-methyl-3-propylpyrido[4,3-d]pyrimidin-4(3H)-one], the Emax result was “+++ (Emax>200 and ≤300)”; the EC50 was 500 to 3000 nM.

As to `Cc1nc2cc(N3CCOC(c4ccnc(C(F)(F)F)c4)C3)nc(-c3ccc(Cl)cc3F)c2c(=O)n1C` (stereo not drawn) [Example 94, 5-(4-chloro-2-fluorophenyl)-2,3-dimethyl-7-(2-(2-(trifluoromethyl)-4-pyridinyl)-4-morpholinyl)pyrido[4,3-d]pyrimidin-4(3H)-one], the Emax entry is “+++ (Emax>200 and ≤300)”; the EC50 is below 50 nM.

With `Cc1nc2cc(N3CCO[C@H](c4ccncc4)C3)nc(-c3ccc(Cl)cc3F)c2c(=O)n1C` [Example 226, (R)-5-(4-chloro-2-fluorophenyl)-2,3-dimethyl-7-(2-(pyridin-4-yl)morpholino)pyrido[4,3-d]pyrimidin-4(3H)-one], the Emax result is recorded as “++++ (Emax>300)” and the EC50 fell in the range of 50 to 500 nM.

For `Cc1nc2cc(N3CCOC(c4noc(-c5ccccc5)n4)C3)nc(-c3ccc(Cl)cc3F)c2c(=O)n1C` (stereo not drawn) [Example 93, 5-(4-chloro-2-fluorophenyl)-2,3-dimethyl-7-(2-(5-phenyl-1,2,4-oxadiazol-3-yl)-4-morpholinyl)pyrido[4,3-d]pyrimidin-4(3H)-one], the Emax result is “+++ (Emax>200 and ≤300)”; the EC50 lay in the range of 500 to 3000 nM.

Take `Cc1nc([C@H]2CN(c3cc4nc(C)n(C)c(=O)c4c(-c4ccc(Cl)cc4F)n3)CCO2)no1` (single isomer, unassigned) [Example 56]: the Emax entry was “+++ (Emax>200 and ≤300)”; the EC50 was in the range of 3000 to 100000 nM.

By EC50 is commonly meant the concentration that produces a half-maximal response.
